Experiment [1] deals with T1, Dual specificity tyrosine-phosphorylation-regulated kinase 2 (Homo sapiens, UniProt Q92630).
T1 sequence (Q92630 whole entry): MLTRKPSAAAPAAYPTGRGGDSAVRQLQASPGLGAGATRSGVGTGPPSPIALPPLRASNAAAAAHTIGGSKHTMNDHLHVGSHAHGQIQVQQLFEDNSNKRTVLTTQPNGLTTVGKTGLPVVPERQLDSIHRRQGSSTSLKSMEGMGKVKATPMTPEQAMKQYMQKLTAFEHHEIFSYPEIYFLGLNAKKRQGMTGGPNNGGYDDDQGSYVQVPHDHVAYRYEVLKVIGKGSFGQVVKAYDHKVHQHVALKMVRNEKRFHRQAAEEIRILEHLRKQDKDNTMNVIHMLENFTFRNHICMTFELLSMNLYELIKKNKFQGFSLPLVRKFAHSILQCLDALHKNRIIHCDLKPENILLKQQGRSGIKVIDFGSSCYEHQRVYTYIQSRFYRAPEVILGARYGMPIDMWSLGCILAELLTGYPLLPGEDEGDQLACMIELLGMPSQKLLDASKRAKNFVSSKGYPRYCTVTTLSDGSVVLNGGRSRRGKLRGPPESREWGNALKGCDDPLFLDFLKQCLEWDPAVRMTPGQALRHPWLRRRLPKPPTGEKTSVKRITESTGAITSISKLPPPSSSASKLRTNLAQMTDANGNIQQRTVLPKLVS

In experiment [2] the target is Cyclin-dependent kinase 5/CDK5 activator 1 (Homo sapiens, UniProt Q00535). Format: cell-based, Sf9.
Cyclin-dependent kinase 5/CDK5 activator 1, sequence (Q00535 whole entry): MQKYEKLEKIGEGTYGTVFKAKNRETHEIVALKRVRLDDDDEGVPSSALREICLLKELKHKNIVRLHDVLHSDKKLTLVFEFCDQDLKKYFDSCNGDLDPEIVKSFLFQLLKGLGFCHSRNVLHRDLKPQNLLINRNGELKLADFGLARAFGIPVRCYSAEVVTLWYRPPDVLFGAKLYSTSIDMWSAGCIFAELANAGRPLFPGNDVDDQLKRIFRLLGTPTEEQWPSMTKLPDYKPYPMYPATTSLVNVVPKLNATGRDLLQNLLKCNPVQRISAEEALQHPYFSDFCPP
Cyclin-dependent kinase 5/CDK5 activator 1, sequence (Q15078 whole entry, further chain): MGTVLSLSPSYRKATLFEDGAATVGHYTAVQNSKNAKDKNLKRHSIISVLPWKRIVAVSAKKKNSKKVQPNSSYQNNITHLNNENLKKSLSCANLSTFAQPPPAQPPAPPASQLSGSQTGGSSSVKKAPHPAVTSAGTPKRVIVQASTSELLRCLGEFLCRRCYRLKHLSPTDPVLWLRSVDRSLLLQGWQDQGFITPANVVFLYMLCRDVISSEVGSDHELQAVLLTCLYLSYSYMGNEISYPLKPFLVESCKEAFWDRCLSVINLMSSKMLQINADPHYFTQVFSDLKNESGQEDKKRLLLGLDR
Experiment [3] deals with T2, Dual specificity tyrosine-phosphorylation-regulated kinase 3 (Homo sapiens, UniProt O43781).
T2 sequence (O43781 whole entry): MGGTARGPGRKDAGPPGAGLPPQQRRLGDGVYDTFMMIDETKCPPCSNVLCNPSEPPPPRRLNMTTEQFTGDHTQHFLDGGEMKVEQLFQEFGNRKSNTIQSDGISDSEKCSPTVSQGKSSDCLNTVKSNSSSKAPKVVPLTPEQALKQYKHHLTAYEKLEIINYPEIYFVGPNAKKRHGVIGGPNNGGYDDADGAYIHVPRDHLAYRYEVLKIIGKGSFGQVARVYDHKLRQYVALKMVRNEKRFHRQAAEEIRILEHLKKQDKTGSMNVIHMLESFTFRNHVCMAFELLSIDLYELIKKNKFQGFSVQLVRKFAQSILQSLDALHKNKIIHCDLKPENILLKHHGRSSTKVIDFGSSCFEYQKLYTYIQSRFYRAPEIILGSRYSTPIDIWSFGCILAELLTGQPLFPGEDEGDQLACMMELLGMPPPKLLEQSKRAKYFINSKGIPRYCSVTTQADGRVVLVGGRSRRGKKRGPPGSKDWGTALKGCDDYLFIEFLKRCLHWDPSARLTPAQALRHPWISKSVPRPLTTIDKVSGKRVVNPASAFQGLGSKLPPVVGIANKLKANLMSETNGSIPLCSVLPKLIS

Experiment [4] addresses Casein kinase I isoform epsilon (Homo sapiens, UniProt P49674).
Experiment [5] deals with Dual specificity protein kinase CLK3 (Homo sapiens, UniProt P49761). Format: cell-based, Sf9.
Dual specificity protein kinase CLK3, sequence (P49761 whole entry): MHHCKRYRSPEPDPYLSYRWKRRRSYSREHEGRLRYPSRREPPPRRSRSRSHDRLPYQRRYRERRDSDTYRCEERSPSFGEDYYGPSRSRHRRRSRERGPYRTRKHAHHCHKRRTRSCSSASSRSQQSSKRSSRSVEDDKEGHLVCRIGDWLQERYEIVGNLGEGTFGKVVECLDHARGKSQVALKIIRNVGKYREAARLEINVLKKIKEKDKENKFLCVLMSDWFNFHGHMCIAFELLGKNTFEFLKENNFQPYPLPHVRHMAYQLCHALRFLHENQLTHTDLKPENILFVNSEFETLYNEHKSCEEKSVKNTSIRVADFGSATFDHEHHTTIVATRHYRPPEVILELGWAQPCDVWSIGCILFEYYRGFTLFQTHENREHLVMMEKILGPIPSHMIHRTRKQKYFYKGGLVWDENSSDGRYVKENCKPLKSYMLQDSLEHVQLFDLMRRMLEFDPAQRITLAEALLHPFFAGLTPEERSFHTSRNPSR
The target of experiment [6] is Glycogen synthase kinase-3 beta (Homo sapiens, UniProt P49841). The class given is cell-based, Sf9.
Glycogen synthase kinase-3 beta, sequence (P49841 whole entry): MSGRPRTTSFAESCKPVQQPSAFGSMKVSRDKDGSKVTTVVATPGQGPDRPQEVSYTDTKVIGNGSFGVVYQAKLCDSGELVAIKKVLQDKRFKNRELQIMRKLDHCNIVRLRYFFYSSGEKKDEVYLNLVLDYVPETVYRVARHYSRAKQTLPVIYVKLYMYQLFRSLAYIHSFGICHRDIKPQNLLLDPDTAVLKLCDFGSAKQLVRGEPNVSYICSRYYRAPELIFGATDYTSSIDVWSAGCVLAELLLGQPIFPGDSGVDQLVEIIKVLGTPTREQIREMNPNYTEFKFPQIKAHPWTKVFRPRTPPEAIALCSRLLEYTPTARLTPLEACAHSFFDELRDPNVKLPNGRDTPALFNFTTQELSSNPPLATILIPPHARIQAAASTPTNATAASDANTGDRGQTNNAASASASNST
Experiment [7] has as its target T3, Dual specificity tyrosine-phosphorylation-regulated kinase 4 (Homo sapiens, UniProt Q9NR20).
T3 sequence (Q9NR20 whole entry): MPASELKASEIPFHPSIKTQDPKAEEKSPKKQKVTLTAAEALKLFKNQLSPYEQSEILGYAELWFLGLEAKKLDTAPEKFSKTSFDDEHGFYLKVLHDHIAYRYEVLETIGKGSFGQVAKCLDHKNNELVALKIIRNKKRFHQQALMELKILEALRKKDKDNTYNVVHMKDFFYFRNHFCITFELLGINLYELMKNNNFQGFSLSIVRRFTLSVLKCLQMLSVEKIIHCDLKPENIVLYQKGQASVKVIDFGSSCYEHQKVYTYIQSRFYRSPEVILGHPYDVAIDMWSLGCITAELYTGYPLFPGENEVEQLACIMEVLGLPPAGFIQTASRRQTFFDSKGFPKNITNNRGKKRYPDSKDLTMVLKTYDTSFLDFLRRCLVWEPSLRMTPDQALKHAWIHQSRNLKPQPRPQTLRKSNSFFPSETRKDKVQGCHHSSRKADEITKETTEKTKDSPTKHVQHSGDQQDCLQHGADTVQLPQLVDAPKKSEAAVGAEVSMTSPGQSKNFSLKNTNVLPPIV

Experiment [8] addresses Dual specificity protein kinase CLK2 (Homo sapiens, UniProt P49760).
For experiment [9], the target named is Dual specificity protein kinase CLK4 (Homo sapiens, UniProt Q9HAZ1).
Dual specificity protein kinase CLK4, sequence (Q9HAZ1 whole entry): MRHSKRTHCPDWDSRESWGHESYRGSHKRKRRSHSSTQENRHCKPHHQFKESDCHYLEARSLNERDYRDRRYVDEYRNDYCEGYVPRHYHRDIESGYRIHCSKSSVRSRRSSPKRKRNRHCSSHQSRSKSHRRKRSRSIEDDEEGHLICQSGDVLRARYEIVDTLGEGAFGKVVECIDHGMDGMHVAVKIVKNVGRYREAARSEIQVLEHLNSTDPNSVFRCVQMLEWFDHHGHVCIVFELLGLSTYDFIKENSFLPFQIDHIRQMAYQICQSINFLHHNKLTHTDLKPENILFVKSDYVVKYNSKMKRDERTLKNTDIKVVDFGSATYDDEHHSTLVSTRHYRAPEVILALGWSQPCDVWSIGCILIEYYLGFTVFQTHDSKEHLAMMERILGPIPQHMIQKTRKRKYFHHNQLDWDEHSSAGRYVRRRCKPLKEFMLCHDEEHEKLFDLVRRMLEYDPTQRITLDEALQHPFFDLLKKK

pIC50: −log10 of the molar value. Where only a bound is given, the exact number is not on record here.

Casein kinase I isoform epsilon, sequence (P49674 whole entry, canonical isoform): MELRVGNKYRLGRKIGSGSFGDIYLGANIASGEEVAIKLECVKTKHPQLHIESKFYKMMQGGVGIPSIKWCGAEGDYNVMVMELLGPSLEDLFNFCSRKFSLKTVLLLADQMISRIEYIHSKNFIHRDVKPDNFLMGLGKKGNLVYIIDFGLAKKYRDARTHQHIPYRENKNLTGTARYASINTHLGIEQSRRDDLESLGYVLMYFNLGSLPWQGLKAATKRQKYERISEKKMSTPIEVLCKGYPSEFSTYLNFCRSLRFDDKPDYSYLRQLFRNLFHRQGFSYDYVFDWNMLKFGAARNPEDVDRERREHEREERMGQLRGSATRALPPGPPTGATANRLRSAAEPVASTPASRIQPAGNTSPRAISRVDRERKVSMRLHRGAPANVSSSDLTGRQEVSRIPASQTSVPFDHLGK
Dual specificity protein kinase CLK2, sequence (P49760 whole entry): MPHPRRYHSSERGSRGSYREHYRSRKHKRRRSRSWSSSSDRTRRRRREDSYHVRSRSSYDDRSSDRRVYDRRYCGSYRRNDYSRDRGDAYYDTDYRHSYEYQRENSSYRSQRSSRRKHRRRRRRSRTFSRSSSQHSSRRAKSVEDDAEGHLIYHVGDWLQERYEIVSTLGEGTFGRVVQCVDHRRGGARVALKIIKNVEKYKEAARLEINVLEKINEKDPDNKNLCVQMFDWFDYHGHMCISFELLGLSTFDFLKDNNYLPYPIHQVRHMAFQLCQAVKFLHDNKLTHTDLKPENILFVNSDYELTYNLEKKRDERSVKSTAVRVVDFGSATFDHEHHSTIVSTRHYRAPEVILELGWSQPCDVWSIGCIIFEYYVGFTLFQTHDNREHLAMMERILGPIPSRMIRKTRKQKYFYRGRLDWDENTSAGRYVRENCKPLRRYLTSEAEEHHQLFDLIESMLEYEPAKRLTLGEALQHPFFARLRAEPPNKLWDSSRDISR

`O=C1CC[C@H](NC2=N/C(=C\c3ccc4ncsc4c3)C(=O)N2)CN1`: the pIC50 in experiment [1] was 6.18; in experiment [2], less than 5.00; in [3], 6.46; in experiment [4], less than 5.00; in [5], 5.94; in experiment [6], 5.09. For the same compound, the values for the pIC50 in experiment [7], in experiment [8] and in experiment [9] were 5.49, 6.33 and 7.66, respectively.

Turning to `O=C1NC(Nc2ccc(N3CCOCC3)cc2)=N/C1=C\c1ccc2ncsc2c1`, the pIC50 in experiment [1], in [2], in [3], in experiment [4], in [5] and in [6] was less than 5.00 in each case. Moreover, the results for the pIC50 in [7], in experiment [8] and in experiment [9] were less than 5.00, less than 5.00 and 5.31, respectively.

Turning to `CC(=O)N1CCc2ccc(NC3=N/C(=C\c4ccc5ncsc5c4)C(=O)N3)cc21`, the pIC50 in experiment [1] is 6.59; in experiment [2] it was less than 5.00; in [3] it was 6.35; in experiment [4] it was less than 5.00; in experiment [5], 5.65; in experiment [6], 5.74. For the same compound, the results for the pIC50 in experiment [7], in experiment [8] and in experiment [9] were 6.15, 6.06 and 7.68, respectively.

In the case of `Cc1nc2ccc(/C=C3\N=C(NC4CCCCCC4)NC3=O)cc2s1`, the pIC50 was 5.64 in experiment [1]; less than 5.00 in experiment [2]; 5.49 in [3]; less than 5.00 in experiment [4]; less than 5.00 in experiment [5]; less than 5.00 in experiment [6]. For the same compound, the pIC50 in experiment [7] was less than 5.00; in experiment [8], 5.25; in [9], 7.47.

As for `CC1(C)CNC(=O)C1NC1=N/C(=C\c2ccc3ncsc3c2)C(=O)N1` (racemic), the negative-log IC50 (pIC50) in experiment [1] was 6.07; in [2] it was less than 5.00; in experiment [3] it was 5.70; in experiment [4] it was less than 5.00; in experiment [5] it was 5.35; in experiment [6], less than 5.00. The results for the pIC50 in experiment [7], in experiment [8] and in experiment [9] were 5.46, 6.03 and 7.55, respectively.

Turning to `O=C1NC(NC2CCNC2=O)=N/C1=C\c1ccc2ncsc2c1` (racemic), the pIC50 was 5.78 in [1]; less than 5.00 in experiment [2]; 5.59 in experiment [3]; less than 5.00 in [4]; 5.94 in experiment [5]; less than 5.00 in experiment [6]. Also, the values for the negative logarithm of the IC50 (pIC50) in [7], in experiment [8] and in [9] were 5.51, 5.99 and 7.48, respectively.

Take `CC(C)(C)C(=O)OC12CC3CC(CC(NC4=N/C(=C\c5ccc6ncsc6c5)C(=O)N4)(C3)C1)C2`: the pIC50 in experiment [1], in experiment [2], in [3], in experiment [4], in [5] and in experiment [6] was less than 5.00 throughout. Also, the figures for the pIC50 in [7], in experiment [8] and in [9] were less than 5.00, 5.88 and 6.36, respectively.

In the case of `CN(C)CC(NC1=N/C(=C\c2ccc3ncsc3c2)C(=O)N1)c1ccccc1` (racemic), the pIC50 in experiment [1] was less than 5.00; in [2], less than 5.00; in [3], 5.82; in experiment [4] it was less than 5.00; in [5], 5.38; in [6] it was 5.17. Besides, the negative logarithm of the IC50 (pIC50) in experiment [7] was 5.06; in experiment [8], 6.23; in [9] it was 6.98.

On to `O=C1NC(NCc2ccccc2)=N/C1=C\c1ccc2ncsc2c1`, for which the pIC50 is 5.92 in [1]; 5.21 in experiment [2]; 5.79 in experiment [3]; less than 5.00 in experiment [4]; 6.55 in experiment [5]; 5.67 in [6]. Further, the negative logarithm of the IC50 (pIC50) in experiment [7] was 5.71; in experiment [8], 7.07; in [9], 7.89.

For `Cc1nc2ccc(/C=C3\N=C(NC45CC6CC(CC(C6)C4)C5)NC3=O)cc2s1`, the pIC50 in experiment [1] is 6.18; in [2], less than 5.00; in [3], 6.49; in experiment [4], less than 5.00; in [5], less than 5.00; in [6] it was less than 5.00. The pIC50 is less than 5.00 in [7], 5.87 in experiment [8] and 7.70 in [9].

As to `COCC(Cc1ccccc1)NC1=N/C(=C\c2ccc3ncsc3c2)C(=O)N1` (centres undefined), the pIC50 in experiment [1] is 6.40; in experiment [2] it was less than 5.00; in [3], 5.62; in experiment [4], less than 5.00; in [5], 6.09; in [6] it was 5.37. Besides, the pIC50 was 6.43 in experiment [7], 7.00 in experiment [8] and 7.92 in [9].

On to `CC1(C)C2CCC1(C)[C@H](NC1=N/C(=C\c3ccc4ncsc4c3)C(=O)N1)C2` (some centres undefined), for which the pIC50 is 6.75 in [1]; less than 5.00 in [2]; 6.65 in [3]; less than 5.00 in [4]; 6.13 in experiment [5]; less than 5.00 in experiment [6]. The pIC50 was 6.66 in experiment [7], 7.77 in experiment [8] and 7.96 in experiment [9].

`O=C1NC(NC2CCCNC2=O)=N/C1=C\c1ccc2ncsc2c1` (racemic): the pIC50 was 5.68 in experiment [1]; less than 5.00 in [2]; 5.55 in [3]; less than 5.00 in experiment [4]; 5.77 in experiment [5]; less than 5.00 in [6]. The pIC50 is 5.14 in [7], 5.88 in [8] and 7.46 in experiment [9].

Consider `CN1CCCC(NC2=N/C(=C\c3ccc4ncsc4c3)C(=O)N2)C1` (racemic), for which the pIC50 in experiment [1] was 5.32; in [2] it was less than 5.00; in [3], 6.05; in experiment [4], less than 5.00; in experiment [5], 5.91; in experiment [6], less than 5.00. Besides, the pIC50 in experiment [7] was 5.15; in experiment [8], 6.11; in experiment [9] it was 6.74.

Turning to `CC(C)(C)NC(=O)OC12CC3CC(CC(NC4=N/C(=C\c5ccc6ncsc6c5)C(=O)N4)(C3)C1)C2`, the pIC50 is 6.83 in [1]; less than 5.00 in [2]; 6.52 in [3]; 5.30 in experiment [4]; 6.15 in [5]; 5.75 in experiment [6]. Moreover, the pIC50 was 6.90 in experiment [7], 7.46 in experiment [8] and 7.96 in experiment [9].

Turning to `O=C1NC(NC2COC2)=N/C1=C\c1ccc2ncsc2c1`, the pIC50 was 6.24 in experiment [1]; less than 5.00 in experiment [2]; 5.84 in experiment [3]; less than 5.00 in experiment [4]; 6.31 in experiment [5]; 5.23 in experiment [6]. Besides, the negative-log IC50 (pIC50) in [7] was 5.67; in [8], 6.21; in [9] it was 7.85.

These data come from ChEMBL document CHEMBL5360622, “Leucettinibs, a Class of DYRK/CLK Kinase Inhibitors Inspired by the Marine Sponge Natural Product Leucettamine B” (J Med Chem, 2023).
